# Test results published in ChEMBL document CHEMBL1133418, “Synthesis and biological evaluation of novel 9-functional heterocyclic coupled 7-deoxy-9-dihydropaclitaxel analogue” (2000).
# Assays:
# Format in all cases: functional
# [1] = system: ECa-109 cell line; assay: Cytotoxicity ratio was evaluated against tumor cell line ECa-109 (Human esophagus cancer) after 72 hr incubation
# [2] = target: Tubulin alpha chain (Sus scrofa) (UniProt P02550); assay: Effective dose which causes polymerization of 50% of the tubulin present at 37 degree C in Microtubule assembly assay
# [3] = system: SK-OV-3; assay: Cytotoxicity ratio was evaluated against human tumor cell line SKOV3 (Human ovarian cancer) after 72 hr incubation
# [4] = system: MCF7; assay: Cytotoxicity ratio was evaluated against human tumor cell line MCF-7 (Human breast cancer) after 72 h incubation
# [5] = system: WiDr; assay: Cytotoxicity ratio was evaluated against human tumor cell line WIDR (Human colon cancer) after 72 hr incubation
# [6] = system: WiDr; assay: Cytotoxicity ratio was evaluated against human tumor cell line WIDR (Human colon cancer) after 72 hr incubation relative to paclitaxel (ED50 = […])
# [7] = system: ECa-109 cell line; assay: Cytotoxicity ratio was evaluated against tumor cell line ECa-109 (Human esophagus cancer) after 72 hr incubation relative to paclitaxel (ED50 = […])
# [8] = system: SK-OV-3; assay: Cytotoxicity ratio was evaluated against human tumor cell line SKOV3 (Human ovarian cancer) after 72 hr incubation relative to paclitaxel (ED50 = […])
# [9] = system: MCF7; assay: Cytotoxicity ratio was evaluated against human tumor cell line MCF-7 (Human breast cancer) after 72 hr incubation relative to paclitaxel (ED50 = […])
# Sequence of Tubulin alpha chain (Sus scrofa) (P02550 whole entry, looked up): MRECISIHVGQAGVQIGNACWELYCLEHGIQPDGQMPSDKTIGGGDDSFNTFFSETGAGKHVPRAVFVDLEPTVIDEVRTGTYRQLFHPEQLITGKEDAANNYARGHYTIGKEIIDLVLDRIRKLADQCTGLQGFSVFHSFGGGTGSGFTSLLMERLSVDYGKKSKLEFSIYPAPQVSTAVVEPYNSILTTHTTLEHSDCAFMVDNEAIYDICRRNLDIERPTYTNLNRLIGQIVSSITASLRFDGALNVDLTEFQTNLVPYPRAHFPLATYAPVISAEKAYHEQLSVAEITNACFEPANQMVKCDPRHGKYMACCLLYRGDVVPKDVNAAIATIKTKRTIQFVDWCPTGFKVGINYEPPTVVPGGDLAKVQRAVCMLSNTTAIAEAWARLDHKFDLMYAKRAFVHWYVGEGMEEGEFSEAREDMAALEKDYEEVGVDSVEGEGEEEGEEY
ED50 [2],SMILES,Ratio [1],Ratio [3],Ratio [4],Ratio [5],Ratio [6],Ratio [7],Ratio [8],Ratio [9]
400 nM,CC(=O)O[C@H]1C(=O)[C@@]2(C)[C@H]([C@H](OC(=O)c3ccccc3)[C@]3(O)C[C@H](OC(=O)[C@H](O)[C@@H](NC(=O)c4ccccc4)c4ccccc4)C(C)=C1C3(C)C)[C@]1(OC(C)=O)CO[C@@H]1C[C@@H]2O [PACLITAXEL],1,1,1,1,–,–,–,–
> 15000 nM,CC(=O)O[C@@H]1C2=C(C)[C@@H](OC(=O)[C@H](O)[C@@H](NC(=O)c3ccccc3)c3ccccc3)C[C@@](O)([C@@H](OC(=O)c3ccccc3)C3[C@@](C)(CC[C@H]4OC[C@@]34OC(C)=O)[C@H]1OC(=O)CCC(=O)OC[C@H]1O[C@@H](n3cc(Br)c(=O)[nH]c3=O)[C@H](O)[C@@H]1O)C2(C)C (stereo not given in full),–,–,–,–,3.87,0.16,4.06,2.64
> 20000 nM,CC(=O)O[C@@H]1C2=C(C)[C@@H](OC(=O)[C@H](O)[C@@H](NC(=O)c3ccccc3)c3ccccc3)C[C@@](O)([C@@H](OC(=O)c3ccccc3)C3[C@@](C)(CC[C@H]4OC[C@@]34OC(C)=O)[C@H]1OC(=O)CCC(=O)OC[C@H]1O[C@@H](n3cc(C)c(=O)[nH]c3=O)C[C@@H]1N=[N+]=[N-])C2(C)C (stereo not given in full),–,–,–,–,2.62,3.54,3.41,3.13
> 15000 nM,CC(=O)O[C@@H]1C2=C(C)[C@@H](OC(=O)[C@H](O)[C@@H](NC(=O)c3ccccc3)c3ccccc3)C[C@@](O)([C@@H](OC(=O)c3ccccc3)C3[C@@](C)(CC[C@H]4OC[C@@]34OC(C)=O)[C@H]1OC(=O)CCC(=O)OC[C@H]1O[C@@H](n3cnc4c(Cl)ncnc43)[C@H](O)[C@@H]1O)C2(C)C (stereo not given in full),–,–,–,–,2.16,0.18,2.24,3.68
900 nM,CC(=O)O[C@@H]1C2=C(C)[C@@H](OC(=O)[C@H](O)[C@@H](NC(=O)c3ccccc3)c3ccccc3)C[C@@](O)([C@@H](OC(=O)c3ccccc3)C3[C@@](C)(CC[C@H]4OC[C@@]34OC(C)=O)[C@H]1OC(=O)CCC(=O)OC[C@H]1O[C@@H](n3ccc(NC(=O)c4ccccc4)nc3=O)C[C@@H]1O)C2(C)C (stereo not given in full),–,–,–,–,2.43,1.03,1.98,1.63
